Test [1] concerns Human CD34+ hematopoietic progenitor cells. In words: In vitro Transwell migration of human CD34+ cells towards an SDF-1 gradient. It is filed as cell-based. As to the method:
Human CD34+ hematopoietic progenitor cells were isolated from G-CSF mobilized peripheral blood and incubated with varying concentrations (0.1 μM, 1.0 μM and 10 μM) of the pyrimidine-based BTK inhibitor 1-[(3R)-3-[4-amino-3-(4-phenoxyphenyl)pyrazolo[3,4-d]pyrimidin-1-yl]piperidin-1-yl]prop-2-en-1-one for one hour at 37° C., 5% CO2 in serum free media (0.5% bovine serum albumin in RPMI media). Cells were then transferred to the upper chamber of a Transwell migration plate (5.0 um pore size, Costar Inc.). The lower chamber contained only serum-free media with 100 ng/ml SDF-1. Cells were incubated for five hours at 37° C., 5% CO2 to allow for cell migration from the upper chamber to the lower chamber. Cells that migrated into the lower chamber were counted using a hemocytometer.

The next test deals with stem cell migration. As to conditions: cited from earlier work.

As for `C=CC(=O)N1CCC[C@@H](n2nc(-c3ccc(Oc4ccccc4)cc3)c3c(N)ncnc32)C1` [Btk inhibitor, 1-[(3R)-3-[4-amino-3-(4-phenoxyphenyl)pyrazolo[3,4-d]pyrimidin-1-yl]piperidin-1-yl]prop-2-en-1-one], the “inhibition of stem cell migration” value in test [1] (0.1 μM, 1.0 μM and 10 μM, one hour preincubation, five hours migration to 100 ng/ml SDF-1, FIG. 1) is “inhibition of stem cell migration was seen at all tested concentrations”. The “activity at lower concentration than reported for plerixafor” value in test [1] (versus plerixafor (50 μM) in similar assays) worked out at 500 fold.

For `c1cc(CN2CCCNCCNCCCNCC2)ccc1CN1CCCNCCNCCCNCC1` [plerixafor], the “concentration reported for activity in similar assays” value in the test on stem cell migration was 50 µM.

The values are drawn from patent US9522917B2, “Bruton's tyrosine kinase inhibitors for hematopoietic mobilization” (Acerta Pharma B.V., priority 2012, dated 2016).
